In US20230157952A1, “METHOD FOR IMPROVING THE STABILITY OF A PHARMACEUTICAL COMPOSITION COMPRISING A HIGH PENETRATION DRUG, AND THE PHARMACEUTICAL COMPOSITION OBTAINED THEREFROM” (Techfields Inc., priority 2020, published 2023):

Experiment: Effect of solvent on the stability of the solution (purity at various pH values and temperature)
Assay type: physicochemical
Conditions: 7% solution

CCN(CC)CCOC(=O)c1ccccc1OC(C)=O.Cl
Purity (%) at day 14 (60° C.) (solvent 25% ethanol, pH 8.0, day 14, 60° C.): 0%
Purity(%) at day 0 (solvent 50% ethanol, pH 1.0, day 0): 99.2 ± 0.3%
Purity(%) at day 14 (5° C.) (solvent 50% ethanol, pH 1.0, day 14, 5° C.): 92.4 ± 0.3%
Purity(%) at day 14 (25° C.) (solvent 50% ethanol, pH 1.0, day 14, 25° C.): 63.8 ± 0.4%
Purity(%) at day 14 (40° C.) (solvent 50% ethanol, pH 1.0, day 14, 40° C.): 0%
Purity (%) at day 14 (60° C.) (solvent 50% ethanol, pH 1.0, day 14, 60° C.): 0%
Purity(%) at day 0 (solvent 50% ethanol, pH 2.0, day 0): 99.5 ± 0.2%
Purity(%) at day 14 (5° C.) (solvent 50% ethanol, pH 2.0, day 14, 5° C.): 96.9 ± 0.3%
Purity(%) at day 14 (25° C.) (solvent 50% ethanol, pH 2.0, day 14, 25° C.): 84.7 ± 0.3%
Purity(%) at day 14 (40° C.) (solvent 50% ethanol, pH 2.0, day 14, 40° C.): 0%
Purity (%) at day 14 (60° C.) (solvent 50% ethanol, pH 2.0, day 14, 60° C.): 0%
Purity(%) at day 0 (solvent 50% ethanol, pH 3.0, day 0): 99.6 ± 0.3%
Purity(%) at day 14 (25° C.) (solvent 50% ethanol, pH 3.0, day 14, 25° C.): 89.5 ± 0.3%
Purity(%) at day 14 (40° C.) (solvent 50% ethanol, pH 3.0, day 14, 40° C.): 3.2 ± 0.3%
Purity (%) at day 14 (60° C.) (solvent 50% ethanol, pH 3.0, day 14, 60° C.): 0%
Purity(%) at day 0 (solvent 50% ethanol, pH 3.7, day 0): 99.7 ± 0.2%
Purity(%) at day 14 (5° C.) (solvent 50% ethanol, pH 3.7, day 14, 5° C.): 99.1 ± 0.3%
Purity(%) at day 14 (25° C.) (solvent 50% ethanol, pH 3.7, day 14, 25° C.): 96.6 ± 0.2%
Purity(%) at day 14 (40° C.) (solvent 50% ethanol, pH 3.7, day 14, 40° C.): 16.9 ± 0.3%
Purity (%) at day 14 (60° C.) (solvent 50% ethanol, pH 3.7, day 14, 60° C.): 0%
Purity(%) at day 0 (solvent 50% ethanol, pH 4.0, day 0): 99.8 ± 0.2%
Purity(%) at day 14 (5° C.) (solvent 50% ethanol, pH 4.0, day 14, 5° C.): 99.2 ± 0.3%
Purity(%) at day 14 (25° C.) (solvent 50% ethanol, pH 4.0, day 14, 25° C.): 97.2 ± 0.3%
Purity(%) at day 14 (40° C.) (solvent 50% ethanol, pH 4.0, day 14, 40° C.): 16.8 ± 0.4%
Purity (%) at day 14 (60° C.) (solvent 50% ethanol, pH 4.0, day 14, 60° C.): 0%
Purity(%) at day 0 (solvent 50% ethanol, pH 4.3, day 0): 99.7 ± 0.2%
Purity(%) at day 14 (5° C.) (solvent 50% ethanol, pH 4.3, day 14, 5° C.): 99.1 ± 0.2%
Purity(%) at day 14 (25° C.) (solvent 50% ethanol, pH 4.3, day 14, 25° C.): 97.2 ± 0.2%
Purity(%) at day 14 (40° C.) (solvent 50% ethanol, pH 4.3, day 14, 40° C.): 14.9 ± 0.3%
Purity (%) at day 14 (60° C.) (solvent 50% ethanol, pH 4.3, day 14, 60° C.): 0%
Purity(%) at day 0 (solvent 50% ethanol, pH 4.6, day 0): 99.7 ± 0.3%
Purity(%) at day 14 (25° C.) (solvent 50% ethanol, pH 4.6, day 14, 25° C.): 96.9 ± 0.3%
Purity(%) at day 14 (40° C.) (solvent 50% ethanol, pH 4.6, day 14, 40° C.): 4.9 ± 0.3%
Purity (%) at day 14 (60° C.) (solvent 50% ethanol, pH 4.6, day 14, 60° C.): 0%
Purity(%) at day 0 (solvent 50% ethanol, pH 5.0, day 0): 99.6 ± 0.2%
Purity(%) at day 14 (25° C.) (solvent 50% ethanol, pH 5.0, day 14, 25° C.): 93.1 ± 0.3%
Purity(%) at day 14 (40° C.) (solvent 50% ethanol, pH 5.0, day 14, 40° C.): 2.3 ± 0.2%
Purity (%) at day 14 (60° C.) (solvent 50% ethanol, pH 5.0, day 14, 60° C.): 0%
Purity(%) at day 0 (solvent 50% ethanol, pH 6.0, day 0): 99.5 ± 0.3%
Purity(%) at day 14 (5° C.) (solvent 50% ethanol, pH 6.0, day 14, 5° C.): 92.9 ± 0.4%
Purity(%) at day 14 (25° C.) (solvent 50% ethanol, pH 6.0, day 14, 25° C.): 85.5 ± 0.3%
Purity(%) at day 14 (40° C.) (solvent 50% ethanol, pH 6.0, day 14, 40° C.): 0%
Purity (%) at day 14 (60° C.) (solvent 50% ethanol, pH 6.0, day 14, 60° C.): 0%
Purity(%) at day 0 (solvent 50% ethanol, pH 7.0, day 0): 99.4 ± 0.3%
Purity(%) at day 14 (5° C.) (solvent 50% ethanol, pH 7.0, day 14, 5° C.): 88.2 ± 0.3%
Purity(%) at day 14 (25° C.) (solvent 50% ethanol, pH 7.0, day 14, 25° C.): 61.9 ± 0.4%
Purity(%) at day 14 (40° C.) (solvent 50% ethanol, pH 7.0, day 14, 40° C.): 0%
Purity (%) at day 14 (60° C.) (solvent 50% ethanol, pH 7.0, day 14, 60° C.): 0%
Purity(%) at day 0 (solvent 50% ethanol, pH 8.0, day 0): 99.2 ± 0.3%
Purity(%) at day 14 (5° C.) (solvent 50% ethanol, pH 8.0, day 14, 5° C.): 60.3 ± 0.4%
Purity(%) at day 14 (25° C.) (solvent 50% ethanol, pH 8.0, day 14, 25° C.): 23.9 ± 0.4%
Purity(%) at day 14 (40° C.) (solvent 50% ethanol, pH 8.0, day 14, 40° C.): 0%
Purity (%) at day 14 (60° C.) (solvent 50% ethanol, pH 8.0, day 14, 60° C.): 0%
Purity(%) at day 0 (solvent water, pH 1.0, day 0): 99.1 ± 0.3%
Purity(%) at day 14 (5° C.) (solvent water, pH 1.0, day 14, 5° C.): 90.8 ± 0.3%
Purity(%) at day 14 (25° C.) (solvent water, pH 1.0, day 14, 25° C.): 62.2 ± 0.4%
Purity(%) at day 14 (40° C.) (solvent water, pH 1.0, day 14, 40° C.): 0%
Purity (%) at day 14 (60° C.) (solvent water, pH 1.0, day 14, 60° C.): 0%
Purity(%) at day 0 (solvent water, pH 2.0, day 0): 99.3 ± 0.2%
Purity(%) at day 14 (5° C.) (solvent water, pH 2.0, day 14, 5° C.): 96.3 ± 0.2%
Purity(%) at day 14 (25° C.) (solvent water, pH 2.0, day 14, 25° C.): 83.3 ± 0.3%
Purity(%) at day 14 (40° C.) (solvent water, pH 2.0, day 14, 40° C.): 0%
Purity (%) at day 14 (60° C.) (solvent water, pH 2.0, day 14, 60° C.): 0%
Purity(%) at day 0 (solvent water, pH 3.0, day 0): 99.5 ± 0.2%
Purity(%) at day 14 (25° C.) (solvent water, pH 3.0, day 14, 25° C.): 88.5 ± 0.2%
Purity(%) at day 14 (40° C.) (solvent water, pH 3.0, day 14, 40° C.): 2.5 ± 0.2%
Purity (%) at day 14 (60° C.) (solvent water, pH 3.0, day 14, 60° C.): 0%
Purity(%) at day 0 (solvent water, pH 3.7, day 0): 99.5 ± 0.1%
Purity(%) at day 14 (25° C.) (solvent water, pH 3.7, day 14, 25° C.): 96.1 ± 0.1%
Purity(%) at day 14 (40° C.) (solvent water, pH 3.7, day 14, 40° C.): 14.5 ± 0.3%
Purity (%) at day 14 (60° C.) (solvent water, pH 3.7, day 14, 60° C.): 0%
Purity(%) at day 0 (solvent water, pH 4.0, day 0): 99.6 ± 0.1%
Purity(%) at day 14 (25° C.) (solvent water, pH 4.0, day 14, 25° C.): 96.6 ± 0.2%
Purity(%) at day 14 (40° C.) (solvent water, pH 4.0, day 14, 40° C.): 14.5 ± 0.3%
Purity (%) at day 14 (60° C.) (solvent water, pH 4.0, day 14, 60° C.): 0%
Purity(%) at day 0 (solvent water, pH 4.3, day 0): 99.7 ± 0.1%
Purity(%) at day 14 (25° C.) (solvent water, pH 4.3, day 14, 25° C.): 96.6 ± 0.1%
Purity(%) at day 14 (40° C.) (solvent water, pH 4.3, day 14, 40° C.): 12.9 ± 0.2%
Purity (%) at day 14 (60° C.) (solvent water, pH 4.3, day 14, 60° C.): 0%
Purity(%) at day 0 (solvent water, pH 4.6, day 0): 99.5 ± 0.2%
Purity(%) at day 14 (25° C.) (solvent water, pH 4.6, day 14, 25° C.): 96.5 ± 0.2%
Purity(%) at day 14 (40° C.) (solvent water, pH 4.6, day 14, 40° C.): 3.6 ± 0.2%
Purity (%) at day 14 (60° C.) (solvent water, pH 4.6, day 14, 60° C.): 0%
Purity(%) at day 0 (solvent water, pH 5.0, day 0): 99.5 ± 0.1%
Purity(%) at day 14 (5° C.) (solvent water, pH 5.0, day 14, 5° C.): 97.3 ± 0.1%
Purity(%) at day 14 (25° C.) (solvent water, pH 5.0, day 14, 25° C.): 92.5 ± 0.2%
Purity(%) at day 14 (40° C.) (solvent water, pH 5.0, day 14, 40° C.): 1.0%
Purity (%) at day 14 (60° C.) (solvent water, pH 5.0, day 14, 60° C.): 0%
Purity(%) at day 0 (solvent water, pH 6.0, day 0): 99.4 ± 0.3%
Purity(%) at day 14 (5° C.) (solvent water, pH 6.0, day 14, 5° C.): 92.1 ± 0.2%
Purity(%) at day 14 (25° C.) (solvent water, pH 6.0, day 14, 25° C.): 84.7 ± 0.3%
Purity(%) at day 14 (40° C.) (solvent water, pH 6.0, day 14, 40° C.): 0%
Purity (%) at day 14 (60° C.) (solvent water, pH 6.0, day 14, 60° C.): 0%
Purity(%) at day 0 (solvent water, pH 7.0, day 0): 99.2 ± 0.3%
Purity(%) at day 14 (5° C.) (solvent water, pH 7.0, day 14, 5° C.): 87.9 ± 0.3%
Purity(%) at day 14 (25° C.) (solvent water, pH 7.0, day 14, 25° C.): 59.8 ± 0.3%
Purity(%) at day 14 (40° C.) (solvent water, pH 7.0, day 14, 40° C.): 0%
Purity (%) at day 14 (60° C.) (solvent water, pH 7.0, day 14, 60° C.): 0%
Purity(%) at day 14 (5° C.) (solvent water, pH 8.0, day 14, 5° C.): 57.9 ± 0.3%
Purity(%) at day 14 (25° C.) (solvent water, pH 8.0, day 14, 25° C.): 21.7 ± 0.4%
Purity(%) at day 14 (40° C.) (solvent water, pH 8.0, day 14, 40° C.): 0%
Purity (%) at day 14 (60° C.) (solvent water, pH 8.0, day 14, 60° C.): 0%
